According to ChEMBL document CHEMBL1131937 (Bioorg Med Chem Lett, 1999):

What was measured:
[1] = biological target: T1, Adrenergic receptor alpha-2 (Rattus norvegicus, UniProt P22086+P19328+P22909); experiment: Inhibition of [3H]clonidine binding to the rat alpha-2-adrenoceptor; type: protein assay; design: Log Ki: unit not given here
T1 sequence (P22086 whole entry): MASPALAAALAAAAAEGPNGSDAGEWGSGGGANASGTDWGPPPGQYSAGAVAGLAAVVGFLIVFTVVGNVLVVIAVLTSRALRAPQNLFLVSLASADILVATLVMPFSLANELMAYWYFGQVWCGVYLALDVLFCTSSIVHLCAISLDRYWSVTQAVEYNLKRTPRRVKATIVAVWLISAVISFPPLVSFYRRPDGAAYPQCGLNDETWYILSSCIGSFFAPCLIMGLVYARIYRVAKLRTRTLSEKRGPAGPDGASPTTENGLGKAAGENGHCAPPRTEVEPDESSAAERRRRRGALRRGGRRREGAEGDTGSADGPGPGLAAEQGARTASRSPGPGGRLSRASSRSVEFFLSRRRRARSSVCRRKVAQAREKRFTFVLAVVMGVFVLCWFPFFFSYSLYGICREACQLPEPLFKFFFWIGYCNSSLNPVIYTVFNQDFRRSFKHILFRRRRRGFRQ
T1 sequence (P19328 whole entry): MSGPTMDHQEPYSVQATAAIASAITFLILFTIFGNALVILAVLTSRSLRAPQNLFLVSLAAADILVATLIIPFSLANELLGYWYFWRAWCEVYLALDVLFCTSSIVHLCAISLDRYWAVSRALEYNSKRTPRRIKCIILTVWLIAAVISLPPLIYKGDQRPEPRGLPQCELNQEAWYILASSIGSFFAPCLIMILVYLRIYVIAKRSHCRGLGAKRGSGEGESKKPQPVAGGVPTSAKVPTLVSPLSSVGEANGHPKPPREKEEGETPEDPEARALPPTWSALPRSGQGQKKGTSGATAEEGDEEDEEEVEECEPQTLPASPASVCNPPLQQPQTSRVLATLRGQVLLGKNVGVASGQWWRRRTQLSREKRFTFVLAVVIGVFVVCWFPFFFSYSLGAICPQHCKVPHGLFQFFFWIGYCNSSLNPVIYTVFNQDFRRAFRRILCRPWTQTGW
T1 sequence (P22909 whole entry): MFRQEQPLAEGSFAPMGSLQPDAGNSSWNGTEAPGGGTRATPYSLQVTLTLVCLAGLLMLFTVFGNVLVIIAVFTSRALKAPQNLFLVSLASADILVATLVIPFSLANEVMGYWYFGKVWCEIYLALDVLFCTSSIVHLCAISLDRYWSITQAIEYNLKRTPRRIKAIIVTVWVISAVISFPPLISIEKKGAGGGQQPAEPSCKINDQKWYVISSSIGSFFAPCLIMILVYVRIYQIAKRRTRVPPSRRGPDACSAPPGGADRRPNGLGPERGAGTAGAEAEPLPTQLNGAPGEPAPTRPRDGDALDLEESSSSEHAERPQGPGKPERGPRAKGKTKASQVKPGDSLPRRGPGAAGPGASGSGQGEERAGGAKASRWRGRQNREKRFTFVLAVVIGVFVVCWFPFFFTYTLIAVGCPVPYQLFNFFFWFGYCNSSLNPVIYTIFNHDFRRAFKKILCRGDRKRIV

[2] = biological target: T2, Phenylethanolamine N-methyltransferase (Bos taurus, UniProt P10938); experiment: Inhibitory activity against bovine adrenal phenylethanolamine N-methyl-transferase (PNMT)
T2 sequence (P10938 whole entry): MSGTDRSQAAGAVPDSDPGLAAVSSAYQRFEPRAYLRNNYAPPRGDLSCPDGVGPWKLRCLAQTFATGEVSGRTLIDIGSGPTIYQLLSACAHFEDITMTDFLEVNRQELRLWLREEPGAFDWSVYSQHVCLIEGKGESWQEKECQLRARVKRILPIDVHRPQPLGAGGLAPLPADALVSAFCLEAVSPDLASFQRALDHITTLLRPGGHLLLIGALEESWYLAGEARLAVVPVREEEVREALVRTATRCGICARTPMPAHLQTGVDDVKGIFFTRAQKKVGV

[3] = Relative affinity for alpha-2-adrenoceptor and phenylethanolamine N-methyl-transferase (PNMT); design: reference not given here

SMILES | Log Ki [1] | Ki [2] [µM] | further results
CNS(=O)(=O)c1ccc2c(c1)CNCC2 | 3.88 |  | 
CS(=O)(=O)c1ccc2c(c1)CNCCC2 | 3.82 | 7.76 | 
Clc1ccc2c(c1Cl)CNCCC2 | 5.39 |  | 
O=[N+]([O-])c1cc2c(c([N+](=O)[O-])c1)CCNC2 | 4.11 | 57.5 | 
C[C@H]1Cc2sc3ccccc3c2CN1 |  |  | Ki [1]: 1400 µM; Selectivity [3]: 4100
NS(=O)(=O)c1ccc2c(c1)CN[C@@H](C(F)(F)F)C2 |  |  | Selectivity [3]: 61
Oc1ccc2c(c1)CCNC2 | 6 | 5.75 | 
C[C@@H]1Cc2ccc([N+](=O)[O-])cc2CN1 | 4.28 |  | 
Brc1ccc2c(c1)CNCC2 |  | 0.295 | 
NS(=O)(=O)c1ccc2c(c1)CNC(CO)C2 (stereo unspecified) |  |  | Selectivity [3]: 290
C[C@H]1Cc2ccc(Cl)c(Cl)c2CN1 | 6.37 | 0.912 | 
COc1ccc2c3c(ccc2c1)CCNC3 |  | 14.1 | 
C[C@H]1CCc2ccc(Cl)c(Cl)c2CN1 | 5.36 | 5.75 | 
CSc1ccc2c(c1)CNCC2 | 6.39 | 0.617 | 
FC(F)(F)C1Cc2ccccc2CN1 (stereo unspecified) |  |  | Ki [1]: 400 µM; Selectivity [3]: 26
FC(F)(F)c1ccc2c(c1)CNCC2 | 5.89 | 0.182 | 
NCc1cccc2ccccc12 | 5.79 |  | 
N#Cc1ccc2c(c1)CN[C@H](C(F)(F)F)C2 |  |  | Selectivity [3]: 1.4
C[C@@H](N)c1ccc(Cl)c(Cl)c1 | 4.39 | 32.4 | 
FC(F)(F)[C@H]1Cc2ccc(Br)cc2CN1 |  |  | Selectivity [3]: 0.83
CSc1ccc2c(c1)CNCCC2 | 4.92 | 1.05 | 
N#Cc1ccc2c(c1)CN[C@@H](C(F)(F)F)C2 |  |  | Selectivity [3]: 15

SMILES | Log Ki [1] | Ki [2] [µM] | further results
O=S(=O)(c1ccccc1)c1ccc2c(c1)CNCC2 | 4.67 |  | 
CC(=O)c1ccc2c(c1)CNCC2 | 5.21 |  | 
CC1Cc2sc3ccccc3c2CN1 (stereo unspecified) |  |  | Selectivity [3]: 1.3
OCC1Cc2ccc(Cl)c(Cl)c2CN1 (stereo unspecified) |  |  | Selectivity [3]: 0.39
C[C@@H]1Cc2sc3ccccc3c2CN1 |  |  | Selectivity [3]: 0.08
C[C@@H](N)c1ccccc1 | 3.54 |  | 
C[C@H]1Cc2ccccc2CN1 | 6.31 |  | 
Oc1cccc2c1CNCC2 | 6.14 | 603 | 
c1ccc2c(c1)CNCCN2 | 5.58 |  | 
O=[N+]([O-])c1ccc2c(c1)CNCCC2 | 4.18 | 0.389 | 
CN1CCc2ccccc2C1 | 6.62 | 50.1 | 
O=C(O)c1ccc2c(c1)CNCC2 | 3.33 |  | 
Oc1cccc2c1CCNC2 | 6.11 |  | 
COC(=O)c1ccc2c(c1)CNCC2 | 5.34 |  | 
C=CCS(=O)(=O)c1ccc2c(c1)CNCC2 | 4.02 |  | 
Ic1ccc2c(c1)CNCC2 | 6.66 |  | 
CS(=O)(=O)c1ccc2c(c1)CN[C@@H](C(F)(F)F)C2 |  |  | Selectivity [3]: 190
N#Cc1ccc2c(c1)CNCC2 | 5.14 |  | 
Clc1ccc2c(c1Cl)CNCC2 | 7.66 |  | 
O=S(=O)(c1ccc2c(c1)CNCC2)C(Cl)(Cl)Cl | 4.47 | 1.26 | 
COc1ccc2c(c1)CNCC2 | 6.33 |  | 
OC[C@H]1Cc2ccccc2CN1 | 5.36 |  | 

SMILES | Log Ki [1] | Ki [2] [µM] | further results
Oc1cc2c(cc1O)CNCC2 | 6.32 | 3.89 | 
FC(F)(F)[C@H]1Cc2ccccc2CN1 |  |  | Selectivity [3]: 0.05
O=[N+]([O-])c1cc2c(c([N+](=O)[O-])c1)CCCNC2 | 4.6 | 36.3 | 
COC(=O)Nc1ccc2c(c1)CNCC2 | 5.04 | 186 | 
C[C@H](N)c1ccccc1 | 3.92 |  | 
FC(F)(F)C1Cc2ccc(Br)cc2CN1 (stereo unspecified) |  |  | Ki [1]: > 1000 µM; Selectivity [3]: > 1900
Nc1ccc2c(c1)CNCCC2 | 3.96 | 24 | 
NC(=O)c1ccc2c(c1)CNCC2 | 4.64 |  | 
Nc1ccc2c(c1)CNCC2 | 5.51 |  | 
Oc1ccc2c(c1)CNCC2 | 5.65 |  | 
O=[N+]([O-])c1ccc2c(c1)CN[C@H](C(F)(F)F)C2 |  |  | Selectivity [3]: 25
N#Cc1ccc2c(c1)CNC(C(F)(F)F)C2 (stereo unspecified) |  |  | Ki [1]: 2900 µM; Selectivity [3]: 220
FC(F)(F)[C@@H]1Cc2ccc(Br)cc2CN1 |  |  | Selectivity [3]: 2.6
COc1ccc(OC)c2c1CCNC2 | 6.25 | 1000 | 
OCc1ccc2c(c1)CNCC2 | 5.64 |  | 
OC[C@@H]1Cc2ccc(Cl)c(Cl)c2CN1 |  |  | Selectivity [3]: 2.1
O=C(c1ccc2c(c1)CNCC2)C(F)(F)F | 4.49 |  | 
NCc1ccc2c(c1)CNCC2 | 4.92 |  | 
O=[N+]([O-])c1ccc2c(c1)CNC(C(F)(F)F)C2 (stereo unspecified) |  |  | Ki [1]: 1500 µM; Selectivity [3]: 750
O=[N+]([O-])c1ccc2c(c1)CNCCCC2 | 4.08 | 4.57 | 
c1ccc2c(c1)CCCNC2 | 4.97 |  | 
O=C(c1ccccc1)c1ccc2c(c1)CNCC2 | 4.57 |  | 

SMILES | Log Ki [1] | Ki [2] [µM] | further results
Brc1ccc2c(c1)CNCCC2 | 5.05 | 0.288 | 
c1ccc2c(c1)CCCCNC2 | 4.81 |  | 
OC[C@H]1Cc2ccc(Cl)c(Cl)c2CN1 |  |  | Selectivity [3]: 0.32
CS(=O)(=O)c1ccc2c(c1)CNC(C(F)(F)F)C2 (stereo unspecified) |  |  | Ki [1]: 3900 µM; Selectivity [3]: 110
O=[N+]([O-])c1ccc2c(c1)CN[C@@H](C(F)(F)F)C2 |  |  | Selectivity [3]: 240
C[C@H](N)c1ccc(Cl)c(Cl)c1 | 4.44 | 5.01 | 
C[C@@H]1Cc2ccccc2CN1 | 5.24 |  | 
C[C@@H]1Cc2ccc(Cl)c(Cl)c2CN1 | 6.66 | 0.355 | 
C[C@@H]1CCc2ccc(Cl)c(Cl)c2CN1 | 5.56 | 0.417 | 
c1ccc(Cc2ccc3c(c2)CNCC3)cc1 | 5.33 | 61.7 | 
C[C@H]1Cc2ccc([N+](=O)[O-])cc2CN1 | 4.72 |  | 
NS(=O)(=O)c1ccc2c(c1)CNCCC2 | 3.82 | 1.66 | 
CS(=O)(=O)c1ccc2c(c1)CN[C@H](C(F)(F)F)C2 |  |  | Selectivity [3]: 22
CN1CCCCc2ccccc2C1 | 5.39 | 1150 | 
NS(=O)(=O)c1ccc2c(c1)CN[C@H](C(F)(F)F)C2 |  |  | Ki [1]: 400 µM; Selectivity [3]: 26
c1ccc2c(c1)CCNC2 [1,2,3,4-TETRAHYDROISOQUINOLINE] | 6.45 |  | 
OC[C@@H]1Cc2ccccc2CN1 | 4.77 |  | 
Cc1ccc2c(c1)CNCC2 | 6.44 | 2.69 | 
COc1cccc2c1CCNC2 | 6.89 |  | 
Oc1ccc2c3c(ccc2c1)CCNC3 | 7.1 |  | 
COc1cccc2c1CNCC2 | 6.52 |  | 
